Assay results from US6541240B1, “Bacterial cleavage of only organic C-N bonds of carbonaceous materials to reduce nitrogen content” (Petroleo Brasileiro S.A.-Petrobras, priority 1999, dated 2003).

Key:
[1] = tested on: Pseudomonas ayucida No PTA-806; assay: Nitrogen Bioavailability Assay, substrate range and specificity tests; assay type: cell-based; details: for growth on test compound as nitrogen source: substrate range and specificity tests
From the text: The ability of bacteria to utilize organic nitrogen compounds for growth can be measured by the Nitrogen Bioavailability Assay (NBA). This assay is based on the fact that all life requires some nitrogen for growth and, therefore, a situation can be created whereby quantifying bacterial growth provides a measure of the utilization of any organic or inorganic compound as a source of nitrogen.
Thus, the Nitrogen Availability Assay utilizes defined mineral salts medium in growth tests in which organonitrogen model compounds such as quinoline, pyridine, carbazole, and porphyrin serve as sources of carbon and/or nitrogen. Growth tests are performed using six conditions:
1. Test compound as sole source of carbon and nitrogen;
2. […]
3. Test compound as sole source of nitrogen (alternative carbon source, glucose/glycerol/succinate, is available);
4. Test compound present as well as alternative sources of carbon and nitrogen;
5. Only alternative nitrogen (ammonia) and carbon (glucose/glycerol/succinate) sources are available. The test compound is not present.
6. No nitrogen compounds of any kind are present, but alternative carbon (glucose/glycerol/succinate) sources are available.
These six growth conditions constitute a bioassay for the ability of a culture to metabolize organonitrogen compounds. […]
The NBA test may be performed with any organonitrogen test compound which is ordinarily used at a concentration of from 3 mM to 20 mM.
In order to determine the range of organonitrogen compounds that could serve as sole sources of nitrogen for growth for the various pure cultures of the invention various organonitrogen compounds and control compounds are tested according to the Nitrogen Bioavailability Assay procedure. All compounds are highly pure, analytical grade compounds.
The various cultures are inoculated into test tubes or shake flasks containing media components appropriate for the six test conditions.
The cultures are then incubated aerobically for 2 to 4 days, at room temperature or at 30° C.
The growth of the cultures is monitored by measuring the turbidity/optical density of the cultures in the various test conditions, or by determining colony forming units.
Test condition no 6 (nitrogen-free sample) is a negative control.
Test conditions no 4 and 5 are positive controls since the samples are amended with both a carbon and nitrogen source and therefore should produce healthy microbial growth unless the test compound is toxic to the culture being tested. In this event only condition no 5 should result in healthy growth.
Substrate range and specificity tests were also carried out for the microorganism of the invention.

Aneurinibacillus sp. = assay: Nitrogen Availability Assay, growth and substrate range tests of thermophilic culture; details: for minimum nitrogen concentration needed for growth: sole nitrogen source; for growth on test compound (substrate range): 3 mM test compound, 2 to 3 weeks incubation
Procedure: The growth curve for this microorganism on pyridine as sole nitrogen source at 55° C. was determined by adding pyridine at the concentration of 3 mM to the Modified A medium in a 300 ml shake flask with a side arm klett tube to take klett/turbidity readings. Inoculums from log phase cultures were used in studying the growth kinetics of the culture. […] All experiments were in triplicate.
The concentration of nitrogen required by Aneurinibacillus sp. for growth was investigated using ammonium chloride and pyridine as sole nitrogen sources in modified medium A, at pH 7 and 55° C.
Substrate range and specificity tests were carried out for this culture. Experiments were performed during 2 to 3 weeks of incubations in sterile tubes with 3 mM concentration of the test compounds and an incubation volume of 5 ml.

Pseudomonas stutzeri = assay: Utilization of carbazole as nitrogen or carbon source; assay type: cell-based
Procedure: This culture is prepared by the methods described hereinbefore. […] Experimental results lead to the conclusion that C—N bonds in carbazole are selectively cleaved by the Pseudomonas stutzer culture isolated here although the specific metabolites produced have not yet been determined.

Yokenella sp. = assay: as above; assay type: cell-based
Procedure: The Yokenella sp. culture is prepared according to the principles described hereinbefore. […] Experimental results lead to the conclusion that C—N bonds in carbazole are selectively cleaved by the Yokenella sp. culture isolated here although the specific metabolites produced have not yet been determined.

[2] = tested on: Derivatives of Pseudomonas ayucida No PTA-806; assay: Utilization of organonitrogen compounds by derivative culture; assay type: cell-based
From the text: Similarly, derivatives of Pseudomonas ayucida No PTA-806 that are resistant to antiobiotics, either by the isolation of chromosomal mutations or by the introduction of suitable plasmids, retain the ability to selectively cleave C—N bonds in quinoline and other organonitrogen compounds.

[3] = tested on: Pseudomonas ayucida No PTA-806; assay: Petroleum (shale oil) biodenitrogenation test; assay type: cell-based; details: overnight (16 hour) incubation
Procedure: One liter of culture OD600=1.67 is produced, which is harvested and the cell pellet is resuspended in 100 mls of ModA medium. The culture is divided into two 50 ml portions and 3 ml of shale oil (1.7 weight % nitrogen) is added to each. Then, the cultures are incubated under agitation at room temperature overnight (16 hours), the oil is separated and analyzed. The amount of quinoline present in oil samples is determined by GC, the area under the peak being corresponding to a retention time for quinoline.
Then duplicate washed concentrated cell suspensions were incubated with shale oil samples for 16 hours at 30° C. The control sample consisted of shale oil added to sterile ModA medium which was incubated for 16 hours at 30° C. After incubation the petroleum samples were recovered and analyzed.

[4] = tested on: Pseudomonas nitroreducens
[5] = modified medium A, pH 7, 55° C.
[6] = pyridine 3 mM as sole nitrogen source, 55° C., Modified A medium

CCCCN1CCCC1 [1-butylpyrrolidine]
growth in the presence of test compound when quinoline simultaneously present as alternate nitrogen source [1]: grew in the presence of all of the test compounds except

Oc1cc(O)c2ccccc2n1 [2,4-quinolinediol]
growth on test compound as nitrogen source [1]: grow

C=C1N(C)c2ccccc2C1(C)C [2-methylene-1,3,3-trimethyl indoline]
growth in the presence of test compound when quinoline simultaneously present as alternate nitrogen source [1]: grew in the presence of all of the test compounds except

O=C1CCc2ccccc2N1 [3,4-dihydro-(1H)-quinolinone]
growth on test compound as nitrogen source [1]: grow

O=c1ccc2cccc(O)c2o1 [8-hydroxycoumarin]
utilization as carbon source for growth [1]: lack of utilization

Oc1cccc2cccnc12 [8-hydroxyquinoline]
growth on test compound as nitrogen source [1]: grow

Cl.N [ammonium chloride]
minimum nitrogen concentration needed for growth (Aneurinibacillus sp.; [5]): 0.5 mM

c1ccc2c(c1)[nH]c1ccccc12 [carbazole]
utilization as sole nitrogen source (Pseudomonas stutzeri): able to utilize
utilization as source of carbon (Pseudomonas stutzeri): dose not utilize
utilization as sole nitrogen source (Yokenella sp.): able to utilize
utilization as source of carbon (Yokenella sp.): dose not utilize

Nc1nc2nc[nH]c2c(=O)[nH]1 [guanine]
growth on test compound as nitrogen source [1]: grow
growth on test compound (substrate range) (Aneurinibacillus sp.): showed growth

c1ccc2cnccc2c1 [isoquinoline]
utilization / metabolism by derivative culture [2]: increased substrate range for the metabolism

NCCCC[C@H](N)C(=O)O [lysine]
growth on test compound as nitrogen source [1]: grow
growth on test compound (substrate range) (Aneurinibacillus sp.): showed growth

O=C(O)c1cccnc1 [nicotinic acid]
growth on test compound as nitrogen source [1]: grow
growth on test compound (substrate range) (Aneurinibacillus sp.): showed growth

c1ccncc1 [pyridine]
utilization as carbon source (Aneurinibacillus sp.): no utilization
growth on test compound (substrate range) (Aneurinibacillus sp.): showed growth
utilization as sole nitrogen source (Aneurinibacillus sp.; 55° C.): able to utilize
concentration inhibitory to the culture (Aneurinibacillus sp.; [5]): higher than 10 mM
exponential growth rate (Aneurinibacillus sp.; [6]): 0.13 h
generation time (Aneurinibacillus sp.; [6]): 7.55 h
minimum nitrogen concentration needed for growth (Aneurinibacillus sp.; [5]): 0.5 mM

c1ccc2ncncc2c1 [quinazoline]
utilization / metabolism by derivative culture [2]: increased substrate range for the metabolism

c1ccc2ncccc2c1 [quinoline]
utilization as carbon source for growth [1]: lack of utilization
cell doubling time ([1]; defined salts medium, 30° C., quinoline as sole nitrogen source): 4.25 h
growth on test compound as nitrogen source [1]: grow
quinoline removed from shale oil [3]: about 68%
growth with compound as sole source of nitrogen [4]: growth with quinoline as sole source of nitrogen is indicated
reduction of total nitrogen content of the medium ([4]; quinoline 3.4 mM as sole source of nitrogen): up to 85%

c1ccc2nccnc2c1 [quinoxaline]
growth on test compound as nitrogen source [1]: grow
utilization / metabolism by derivative culture [2]: improved ability to utilize

N[C@@H](Cc1c[nH]c2ccccc12)C(=O)O [tryptophan]
growth on test compound as nitrogen source [1]: grow
growth on test compound (substrate range) (Aneurinibacillus sp.): showed growth

NC(N)=O [urea]
growth on test compound as nitrogen source [1]: grow
growth on test compound (substrate range) (Aneurinibacillus sp.): showed growth
